From ChEMBL document CHEMBL1201862, “PubChem BioAssay data set” (2004)
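Cultured in 96-well plates, cells were exposed to test compound for 48 hours across five concentrations. GI50 marks 50% less growth.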 Activity calls are given as the source filed them. Rule as the data show it: active = GI50 up to about 1.1 µM and inactive = higher.

How the values were obtained:
Test in all cases: NCI anticancer screen, dose series, 48 h
[1] = test system: COLO 205
[2] = test system: KM12
[3] = test system: LOX IMVI
[4] = test system: M14
[5] = test system: MOLT-4
[6] = test system: Malme-3M
[7] = test system: NCI-H23
[8] = test system: NCI/ADR-RES
[9] = test system: OVCAR-8
[10] = test system: PC-3
[11] = test system: RPMI-8226
[12] = test system: SF-268
[13] = test system: SF-295
[14] = test system: SK-MEL-2
[15] = test system: SNB-75
[16] = test system: U-251
[17] = test system: UACC-62
[18] = test system: HOP-62
[19] = test system: T47D

Measured: GI50

CCOC(=O)Cc1cc(=O)oc2cc(O)ccc12
inactive: [1] > 100 µM | [2] > 100 µM | [3] > 100 µM | [4] > 100 µM | [5] > 100 µM | [6] > 100 µM | [7] > 100 µM | [8] > 100 µM | [9] > 100 µM | [10] > 100 µM | [11] > 100 µM | [12] > 100 µM | [13] > 100 µM | [14] > 100 µM | [15] > 100 µM | [16] > 100 µM | [17] > 100 µM

COC(=O)[C@@H](OC(C)=O)[C@@H](OC(C)=O)c1nnc2ccc(Cl)nn12
inactive: [1] > 100 µM | [18] > 100 µM | [2] > 100 µM | [3] > 100 µM | [4] > 100 µM | [5] > 100 µM | [6] > 100 µM | [7] > 100 µM | [8] > 100 µM | [9] > 100 µM | [10] > 100 µM | [11] 62.2 µM | [12] > 100 µM | [13] > 100 µM | [14] > 100 µM | [19] > 100 µM | [16] > 100 µM | [17] > 100 µM

CCOC(=O)NC(=O)c1cn(CCN2CCN(c3ncnc4[nH]cnc34)CC2)c(=O)[nH]c1=O
inactive: [1] > 100 µM | [18] > 100 µM | [2] > 100 µM | [3] > 100 µM | [4] > 100 µM | [5] > 100 µM | [6] > 100 µM | [7] > 100 µM | [9] > 100 µM | [11] > 100 µM | [12] > 100 µM | [13] > 100 µM | [14] > 100 µM | [15] > 100 µM | [16] > 100 µM | [17] > 100 µM

CN1CCCN(C)CCCN(C)CCCN(C)CCC1
inactive: [1] > 100 µM | [18] > 100 µM | [2] > 100 µM | [4] > 100 µM | [5] > 100 µM | [6] > 100 µM | [7] > 100 µM | [8] > 100 µM | [9] > 100 µM | [10] > 100 µM | [11] > 100 µM | [12] > 100 µM | [13] > 100 µM | [14] > 100 µM | [19] > 100 µM | [16] > 100 µM | [17] > 100 µM

C/C(=N\NC(=N)N)C(CN1CCCCC1)C(c1ccccc1)c1c(O)c2ccccc2oc1=O (stereo unspecified)
inactive: [1] > 100 µM | [18] > 100 µM | [3] > 100 µM | [4] > 100 µM | [6] > 100 µM | [7] > 100 µM | [9] > 100 µM | [11] > 100 µM | [12] > 100 µM | [13] > 100 µM | [14] > 100 µM | [15] > 100 µM | [17] > 100 µM

C[N+](C)(C)CC(=O)N/N=C(/Cc1nc2c3c(ccc2nc1O)C(=O)c1ccccc1C3=O)C(=O)Nc1ccc(Cl)c(Cl)c1
inactive: [1] > 100 µM | [18] 35.9 µM | [2] 19.7 µM | [4] 81.1 µM | [5] 19.9 µM | [6] > 100 µM | [7] 44.6 µM | [9] 50.5 µM | [11] 17.4 µM | [12] 26 µM | [13] 79.4 µM | [14] 91.2 µM | [17] 41.6 µM

Cc1cc(C)nc(NS(=O)(=O)c2ccc(Nc3c4ccc(Cl)cc4nc4c(C(=O)Nc5ccc(S(=O)(=O)N=C(N)N)cc5)cccc34)cc2)n1
inactive: [18] > 100 µM | [2] > 100 µM | [3] 49.9 µM | [4] > 100 µM | [5] 29 µM | [6] 78.7 µM | [7] > 100 µM | [9] > 100 µM | [11] 45.4 µM | [12] 35.7 µM | [13] > 100 µM | [15] 57.7 µM | [16] 87.5 µM | [17] 70.8 µM

COc1cc(/C=C2/SC(c3ccccc3)N(c3ccc(NC(C)=O)cc3)C2=O)cc(OC)c1OC (stereo unspecified)
inactive: [1] > 100 µM | [18] > 100 µM | [2] 91.4 µM | [3] 72.1 µM | [4] > 100 µM | [5] 31.3 µM | [6] 54.1 µM | [7] > 100 µM | [8] > 100 µM | [9] > 100 µM | [11] 36.8 µM | [12] 75.2 µM | [13] 61.2 µM | [14] > 100 µM | [19] 84.3 µM | [16] > 100 µM | [17] > 100 µM

COc1ccc(CC2(Cc3ccc(OC)cc3)CCOC2=O)cc1
inactive: [1] > 100 µM | [18] 20.8 µM | [2] > 100 µM | [4] > 100 µM | [5] > 100 µM | [6] > 100 µM | [7] > 100 µM | [9] > 100 µM | [11] > 100 µM | [12] 45.8 µM | [13] 60.1 µM | [14] 94.8 µM | [15] 14.7 µM | [16] > 100 µM | [17] > 100 µM

COc1cc2c(c(OC)c1)/C(=C/Sc1ccccc1)C(=O)N(C(C)(C)C)C2
inactive: [1] 26.2 µM | [18] 27.5 µM | [2] 24.3 µM | [3] 18.8 µM | [5] 21.3 µM | [7] 26.3 µM | [8] 11.7 µM | [9] 25.6 µM | [10] 22.4 µM | [11] 26.1 µM | [12] 14.1 µM | [13] 27.2 µM | [14] 20.2 µM | [19] 26.7 µM | [16] 29.8 µM | [17] 24.3 µM

COC(CN(C(=O)c1ccccc1)C1CCC2(SCCS2)c2[nH]c3ccccc3c21)OC (stereo unspecified)
inactive: [1] 21.9 µM | [18] 27.7 µM | [2] 27.5 µM | [3] 2.18 µM | [4] 30.7 µM | [5] 14.6 µM | [6] 25.2 µM | [7] 58.6 µM | [8] 18.1 µM | [9] 34.9 µM | [10] 18.2 µM | [11] 29.6 µM | [12] > 100 µM | [13] 3.01 µM | [14] 32.6 µM | [15] 20.2 µM | [16] 25.9 µM

CCc1nnc(CC)n1-n1c(Cc2ccccc2)n[nH]c1=O
inactive: [1] > 100 µM | [18] > 100 µM | [2] > 100 µM | [3] > 100 µM | [4] > 100 µM | [5] > 100 µM | [7] > 100 µM | [8] > 100 µM | [9] > 100 µM | [10] > 100 µM | [11] > 100 µM | [12] > 100 µM | [13] > 100 µM | [14] > 100 µM | [15] > 100 µM | [16] > 100 µM | [17] > 100 µM

CC(O)=NC(Cc1ccc2ccccc2c1)C(O)=NC(Cc1ccc(Cl)cc1)C(O)=NC(Cc1c[nH]c2ccccc12)C(O)=NC(CO)C(O)=NC(Cc1ccc(O)cc1)C(O)=NC(CCCN=C(N)N)C(O)=NC(CC(C)C)C(O)=NC(CCCN=C(N)N)C(=O)N1CCCC1C(O)=NC(C)C(=N)O (stereo unspecified)
inactive: [1] 26.3 µM | [18] 85.7 µM | [2] 41.1 µM | [4] 59.8 µM | [5] > 100 µM | [6] 99.5 µM | [7] 31.3 µM | [8] 60.3 µM | [9] 27.1 µM | [10] 32.3 µM | [11] > 100 µM | [12] > 100 µM | [13] 27.9 µM | [14] 13.4 µM | [15] 38.1 µM | [16] 31.6 µM | [17] 45.6 µM

Cc1nc(-c2nc(C)c(C(=O)/C=C/c3ccc([N+](=O)[O-])cc3)s2)sc1C(=O)/C=C/c1ccc([N+](=O)[O-])cc1
inactive: [1] > 100 µM | [18] > 100 µM | [2] > 100 µM | [3] > 100 µM | [4] > 100 µM | [5] > 100 µM | [6] > 100 µM | [7] > 100 µM | [9] > 100 µM | [11] > 100 µM | [12] > 100 µM | [13] > 100 µM | [14] > 100 µM | [15] > 100 µM | [16] > 100 µM | [17] > 100 µM

O=C1NC(Cc2ccc(O)cc2)C(=O)NC1Cc1ccc(O)cc1 (stereo unspecified)
inactive: [1] > 100 µM | [18] > 100 µM | [2] > 100 µM | [3] > 100 µM | [4] > 100 µM | [5] > 100 µM | [6] > 100 µM | [7] > 100 µM | [8] > 100 µM | [9] > 100 µM | [10] > 100 µM | [11] > 100 µM | [12] > 100 µM | [13] > 100 µM | [14] > 100 µM | [15] 28.2 µM | [16] > 100 µM | [17] > 100 µM

COc1cccc(C=C2N=C(C)N(n3c(-c4ccccc4)nc4ccccc4c3=O)C2=O)c1
inactive: [1] > 100 µM | [18] > 100 µM | [2] > 100 µM | [3] > 100 µM | [4] > 100 µM | [5] 94.4 µM | [7] > 100 µM | [9] > 100 µM | [10] > 100 µM | [11] 59 µM | [12] > 100 µM | [13] 95.5 µM | [15] 56.1 µM | [19] > 100 µM | [17] > 100 µM
